Measured values from patent US20220128564A1, “USE OF A STIMULATING AGENT TO ASSAY IMMUNE CELL POTENCY” (RESEARCH INSTITUTE AT NATIONWIDE CHILDREN'S HOSPITAL, priority 2019, published 2022).

Assays:
[1] = tested on: fresh peripheral blood NK cells; test: PHA-induced cytokine assay, fresh peripheral blood NK cells; format: cell-based; conditions: fresh NK cells (N=10), 10^6 cells, 1 hour stimulation with PHA, supernatant
Source text: (§1) Use of tumor cells to test effector function of therapeutic immune cells has been a standard practice. These target cells add biological variabilities to the outcomes of assay. Also, this assay set up is more tedious and complicated adding up variabilities due to target condition, plate set up, person-to-person difference in techniques. The therapeutic response of NK cells via comparison of a PHA cytokine assay against a widely use tumor cell (K562) mediated cytokine assay. The levels of cytokine indicate potency of the response from the NK cells.
(§2) After establishing an optimal number of cells (10^6) for the assay, multiple donors of fresh peripheral blood NK cells (N=10) and expanded NK cells (N=18) were stimulated with PHA to produce cytokines, and after 1 hour cytokine in the supernatant was assessed. Expression of most cytokines are similar between the two types of NK cells, but several cytokines and chemokines related to NK cell function were highly differentially expressed in response to stimulation (FIG. 6). Next the expression of 6 cytokines in fresh and expanded NK cells was measured after 1 hour stimulation with PHA. Pentraxin-3 (mean 1,062 vs 7), IL-8 (mean 821 vs 11), and Chitinase 3-like 1 (mean 620 vs 7) were highly overexpressed in fresh NK cells compared to expanded NK cells, and IFN-γ (mean 15 vs 105), IL-2 (mean 3 vs 141), and CD30 (mean9 vs. 156) were highly overexpressed in expanded NK cells compared to fresh NK cells (FIG. 7). On the basis of overexpression alone, a cut-off of expressing 10 pg/mL of both IFN-γ and IL-2 has 94% specificity […] and 89% sensitivity (16 of 18) in differentiating expanded NK cells from fresh peripheral blood NK cells (FIG. 8).

[2] = tested on: expanded NK cells; test: PHA-induced cytokine assay, expanded NK cells; format: cell-based; conditions: expanded NK cells (N=18), 10^6 cells, 1 hour stimulation with PHA, supernatant
Source text: as §1, §2

## phytohemagglutinin [PHA]
[1]
  CD30 expression (mean): 9
  Chitinase 3-like 1 expression (mean): 620
  IFN-γ expression (mean): 15
  IL-2 expression (mean): 3
  IL-8 expression (mean): 821
  Pentraxin-3 expression (mean): 1,062
[2]
  CD30 expression (mean): 156
  Chitinase 3-like 1 expression (mean): 7
  IFN-γ expression (mean): 105
  IL-2 expression (mean): 141
  IL-8 expression (mean): 11
  Pentraxin-3 expression (mean): 7
